For assay [1], the system named is vasopressor response to arginine vasopressin. Put plainly: Antagonism to the vasopressor response (Anti-VP). Format: in vivo. The settings on record: estimated in vivo pA2; for Anti-VP pA2: Table 1. How it is done:
Antagonism to the vasopressor response was estimated in accordance with Dyckes et al., J. Med. Chem., vol. 17 (1974) at 969. The values are expressed as pA2 values, defined as in Schild et al., Br. J. Pharmacol., vol. 2 (1947) at 189.
(§1) Antagonistic potencies were determined and expressed as "effective doses" and pA2 values. The "effective dose" is defined as the dose (in nanomoles per kilogram) that reduces the response seen from 2x units of agonist injected 20 min after the dose of antagonist to the response with 1x units of agonist. Estimated in vivo "pA2 " values represent the negative logarithms of the effective doses, divided by the estimated volume of distribution (67 ml/kg).

For assay [2], the system named is antidiuretic response to arginine vasopressin. Put plainly: Antagonism of the antidiuretic response to arginine vasopressin (Anti-ADH). Format: in vivo, rats. The following applies: for Anti-ADH Potency pA2: estimated in vivo pA2. How it is done: Activity as antidiuretic agonists was determined by intravenous injection of the compounds being evaluated in ethanol-anesthesized water-loaded rats in accordance with Sawyer, Endocrinology, vol. 63 (1958) at 694. Antagonism of the antidiuretic response to subsequent injections of arginine vasopressin was tested by the method of Sawyer et al., Science, vol. 212 (1981) at 49.
as §1

*1 amine or outer side, *2 acyl side, *3 side chain or, on linkers, in order; H or OH if unused. Where a SMILES comes first, the peptide text is derived from it. Bridges are numbered along the chain shown (N, C = ends). [ ]: non-standard residue; d: D form. The star is where a group is joined. Ethylenediamine = C(CN[*:2])N[*:1]; X1 = O=C(CC1(S[*:2])CCCCC1)[*:1]; NH(CH2)4NH2 = NCCCCN*; NHCH2CH2OH = OCCN*; Sar = CNCC(=O)O; NHBu = CCCCN*

As to `CC[C@H](C)[C@@H]1NC(=O)[C@H](Cc2ccccc2)NC(=O)[C@@H](Cc2ccccc2)NC(=O)CC2(CCCCC2)SSC[C@@H](C(=O)N2CCC[C@H]2C(=O)N[C@@H](CCCNC(=N)N)C(=O)NCCO)NC(=O)[C@H](CC(N)=O)NC1=O` [[1-(beta-mercapto-beta,beta-cyclopentamethylenepropionic acid), 2-D-phenylalanine, 4-isoleucine, 8-arginine-N-(beta-hydroxy)ethylamide, 9-desglycinamide] vasopressin] ([dF]FINCPR-NHCH2CH2OH; linker N-5 via X1), the “Anti-VP Potency pA2” value in assay [1] (Table 4, ^+ = mixed) was 7.45 ± 0.12. For the same molecule, in assay [2] (Table 4), the “Anti-ADH Potency pA2” value is reported as 8.17 ± 0.10.

As for `CCOc1ccc(C[C@H]2NC(=O)CC3(CCCCC3)SSC[C@@H](C(=O)N3CCC[C@H]3C(=O)N[C@@H](CCCNC(=N)N)C(=O)NCCCCN)NC(=O)[C@H](CC(N)=O)NC(=O)[C@H]([C@@H](C)CC)NC(=O)[C@H](Cc3ccccc3)NC2=O)cc1` [[1-(beta-mercapto-beta,beta-cyclopentamethylenepropionic acid), 2-D-(O-ethyl)tyrosine, 4-isoleucine, 8-arginine-N-(delta-amino)butylamide,9-desglycinamide] vasopressin] ([dY](Et)FINCPR-{NH(CH2)4NH2}; linker N-5 via X1), in assay [1] (Table 4, ^+ = mixed), the “Anti-VP Potency pA2” value was 7.78 ± 0.4. In assay [2] (Table 4), the “Anti-ADH Potency pA2” value is given as 7.68 ± 0.05.

As to `CNC(=O)CN(C)C(=O)[C@H](CCCNC(=N)N)NC(=O)[C@@H]1CCCN1C(=O)[C@@H]1CSSC2(CCCCC2)CC(=O)N[C@@H](Cc2ccc(OC)cc2)C(=O)N[C@@H](Cc2ccccc2)C(=O)N[C@@H](CCC(N)=O)C(=O)N[C@@H](CC(N)=O)C(=O)N1` [d(CH2)5 [Tyr(Me)^2, Sar(NHMe)^9]AVP, [1-(beta-mercapto-beta,beta-cyclopentamethylenepropionic acid), 2-O-methyltyrosine, 9-sarcosine-N-methylamide]-arginine vasopressin] (Y(Me)FQNCPR[Sar]-NHMe; linker N-5 via X1), the “Anti-VP Potency pA2” value in assay [1] (Table 4, ^+ = mixed) was 8.31 ± 0.03. Also, in assay [2] (Table 4), the “Anti-ADH Potency pA2” value is listed as ~ 5.5.

As for `CCOc1ccc(C[C@H]2NC(=O)CC3(CCCCC3)SSC[C@@H](C(=O)N3CCC[C@H]3C(=O)N[C@@H](CCCNC(=N)N)C(=O)N[C@@H](C)C(=O)NC)NC(=O)[C@H](CC(N)=O)NC(=O)[C@H](C(C)C)NC(=O)[C@H](Cc3ccccc3)NC2=O)cc1` [[1-(beta-mercapto-beta,beta-cyclopentamethylenepropionic acid), 2-D-(O-ethyl)tyrosine, 4-valine, 9-alanine-N-methylamide]-arginine vasopressin] ([dY](Et)FVNCPRA-NHMe; linker N-5 via X1), in assay [1] (Table 4, ^+ = mixed), the “Anti-VP Potency pA2” value is recorded as 8.17 ± 0.04. For the same molecule, the “Anti-ADH Potency pA2” value in assay [2] (Table 4) is given as 7.92 ± 0.06.

Consider `N=C(N)NCCC[C@H](NC(=O)[C@@H]1CCCN1C(=O)[C@@H]1CSSC2(CCCCC2)CC(=O)N[C@@H](Cc2ccc(O)cc2)C(=O)N[C@@H](Cc2ccccc2)C(=O)N[C@@H](CCC(N)=O)C(=O)N[C@@H](CC(N)=O)C(=O)N1)C(=O)O` [desGly(NH2)^9 d(CH2)5 AVP, [1-(beta-mercapto-beta,beta-cyclopentamethylenepropionic acid), 9-desglycinamide]-arginine vasopressin] (YFQNCPR-OH; linker N-5 via X1), for which the “Anti-VP pA2” value in assay [1] was 7.88 ± 0.06.

As to `CC[C@H](C)[C@@H]1NC(=O)[C@H](Cc2ccccc2)NC(=O)[C@@H](Cc2ccccc2)NC(=O)CC2(CCCCC2)SSC[C@@H](C(=O)N2CCC[C@H]2C(=O)N[C@@H](CCCNC(=N)N)C(=O)N[C@@H](Cc2ccccc2)C(N)=O)NC(=O)[C@H](CC(N)=O)NC1=O` [Phe(NH2), [1-(beta-mercapto-beta,beta-cyclopentamethylenepropionic acid), 2-D-phenylalanine, 4-isoleucine, 9-phenylalaninamide]-arginine vasopressin] ([dF]FINCPRF-NH2; linker N-5 via X1), the “Anti-VP Potency pA2” value in assay [1] (Table 2) is 7.28 ± 0.11. The “Anti-ADH Potency pA2” value in assay [2] (Table 2) is given as 7.69 ± 0.09.

`N=C(N)NCCC[C@H](NC(=O)[C@@H]1CCCN1C(=O)[C@@H]1CSSC2(CCCCC2)CC(=O)N[C@@H](Cc2ccc(O)cc2)C(=O)N[C@@H](Cc2ccccc2)C(=O)N[C@@H](CCC(N)=O)C(=O)N[C@@H](CC(N)=O)C(=O)N1)C(N)=O` [desGly^9 d(CH2)5 AVP, [1-(beta-mercapto-beta,beta-cyclopentamethylenepropionic acid), 9-desglycine]-arginine vasopressin] (YFQNCPR-NH2; linker N-5 via X1): the “Anti-VP pA2” value in assay [1] was 8.40 ± 0.06.

As for `N=C(N)NCCC[C@H](NC(=O)[C@@H]1CCCN1C(=O)[C@@H]1CSSC2(CCCCC2)CC(=O)N[C@@H](Cc2ccc(O)cc2)C(=O)N[C@@H](Cc2ccccc2)C(=O)N[C@@H](CCC(N)=O)C(=O)N[C@@H](CC(N)=O)C(=O)N1)C(=O)NCC(N)=O` [d(CH2)5 AVP, [1-(beta-mercapto-beta,beta-cyclopentamethylenepropionic acid)]-arginine vasopressin, reference compound] (YFQNCPRG-NH2; linker N-5 via X1), in assay [1], the “Anti-VP pA2” value is recorded as 8.16 ± 0.09.

As to `CC[C@H](C)[C@@H]1NC(=O)[C@H](Cc2ccccc2)NC(=O)[C@@H](Cc2ccccc2)NC(=O)CC2(CCCCC2)SSC[C@@H](C(=O)N2CCC[C@H]2C(=O)N[C@@H](CCCNC(=N)N)C(=O)N2CCC[C@H]2C(N)=O)NC(=O)[C@H](CC(N)=O)NC1=O` [Pro(NH2), [1-(beta-mercapto-beta,beta-cyclopentamethylenepropionic acid), 2-D-phenylalanine, 4-isoleucine, 9-prolinamide]-arginine vasopressin] ([dF]FINCPRP-NH2; linker N-5 via X1), the “Anti-VP Potency pA2” value in assay [1] (Table 2) is recorded as 7.12 ± 0.11. In assay [2] (Table 2), the “Anti-ADH Potency pA2” value is given as 7.19 ± 0.04.

On to `CCCCNC(=O)CNC(=O)[C@H](CCCNC(=N)N)NC(=O)[C@@H]1CCCN1C(=O)[C@@H]1CSSC2(CCCCC2)CC(=O)N[C@@H](Cc2ccc(OC)cc2)C(=O)N[C@@H](Cc2ccccc2)C(=O)N[C@@H](CCC(N)=O)C(=O)N[C@@H](CC(N)=O)C(=O)N1` [d(CH2)5 [Tyr(Me)^2, Gly(NHBu-n)^9]AVP, [1-(beta-mercapto-beta,beta-cyclopentamethylenepropionic acid), 2-(O-methyl)tyrosine, 9-glycine-N-(n-butyl)amide]-arginine vasopressin] (Y(Me)FQNCPRG-NHBu; linker N-5 via X1), for which the “Anti-VP Potency pA2” value in assay [1] (Table 4, ^+ = mixed) is recorded as 8.44 ± 0.07.

Take `CCOc1ccc(C[C@@H]2NC(=O)CC3(CCCCC3)SSC[C@@H](C(=O)N3CCC[C@H]3C(=O)N[C@@H](CCCNC(=N)N)C(=O)NCC(N)=O)NC(=O)[C@H](CC(N)=O)NC(=O)[C@H](C(C)C)NC(=O)[C@H](Cc3ccccc3)NC2=O)cc1` [d(CH2)5 [Tyr(Et)]^2 VAVP, [1-(beta-mercapto-beta,beta-cyclopentamethylenepropionic acid), 2-(O-ethyl)tyrosine, 4-valine]-arginine vasopressin, reference compound] (Y(Et)FVNCPRG-NH2; linker N-5 via X1): in assay [1], the “Anti-VP pA2” value was 8.16 ± 0.09. Also, the “Anti-ADH pA2” value in assay [2] (Table 1, estimated in vivo pA2 = negative log of effective dose divided by volume of distribution (67 ml/kg)) is 7.57 ± 0.06.

With `CNC(=O)[C@H](CCCNC(=N)N)NC(=O)[C@@H]1CCCN1C(=O)[C@@H]1CSSC2(CCCCC2)CC(=O)N[C@@H](Cc2ccc(OC)cc2)C(=O)N[C@@H](Cc2ccccc2)C(=O)N[C@@H](CCC(N)=O)C(=O)N[C@@H](CC(N)=O)C(=O)N1` [[1-(beta-mercapto-beta,beta-cyclopentamethylenepropionic acid), 2-(O-methyl)tyrosine, 8-arginine-N-methylamide, 9-desglycinamide] vasopressin] (Y(Me)FQNCPR-NHMe; linker N-5 via X1), the “Anti-VP Potency pA2” value in assay [1] (Table 4, ^+ = mixed) is 8.73 ± 0.02. The “Anti-ADH Potency pA2” value in assay [2] (Table 4) is ~ 5.9.

Consider `COc1ccc(C[C@@H]2NC(=O)CC3(CCCCC3)SSC[C@@H](C(=O)N3CCC[C@H]3C(=O)N[C@@H](CCCNC(=N)N)C(=O)NCC(=O)NCCN)NC(=O)[C@H](CC(N)=O)NC(=O)[C@H](CCC(N)=O)NC(=O)[C@H](Cc3ccccc3)NC2=O)cc1` [[1-(beta-mercapto-beta,beta-cyclopentamethylenepropionic acid), 2-(O-methyl)tyrosine, 9-glycine-N-(beta-amino)ethylamide]-arginine vasopressin] (Y(Me)FQNCPRG-Ethylenediamine; linker N-5 via X1), for which the “Anti-VP Potency pA2” value in assay [1] (Table 4, ^+ = mixed) is 8.39 ± 0.05.

With `CCCCNC(=O)[C@H](CCCNC(=N)N)NC(=O)[C@@H]1CCCN1C(=O)[C@@H]1CSSC2(CCCCC2)CC(=O)N[C@H](Cc2ccccc2)C(=O)N[C@@H](Cc2ccccc2)C(=O)N[C@@H]([C@@H](C)CC)C(=O)N[C@@H](CC(N)=O)C(=O)N1` [[1-(beta-mercapto-beta,beta-cyclopentamethylenepropionic acid), 2-D-phenylalanine, 4-isoleucine, 8-arginine-N-(n-butyl)amide, 9-desglycinamide)] vasopressin] ([dF]FINCPR-NHBu; linker N-5 via X1), the “Anti-VP Potency pA2” value in assay [1] (Table 4, ^+ = mixed) is recorded as 7.13 ± 0.08.
